One block for each compound: values may come before it.
Columns and labels:
Type in all cases: biochemical
[1] = target: T1, SaEAS (SaEAS-FLAG, secreted SaEASΔSP-FLAG) (Streptomyces albidoflavus, UniProt A0AA37FDV0); test: anion-exchange chromatography, competition of PPi acceptors, Km from calculated acceptor-site occupancy; conditions: 5 mM ATP, 5 mM free MgCl2, 0.1 mM MnCl2, pH 7.5, 37 °C
T1 construct: gene ScoT_12220; full-length gene with FLAG tag overexpressed (ermE* promoter) in S. albidoflavus SM254 delta-SaEAS; signal peptide cleaved on secretion; diluted spent medium used without purification
Description: anion-exchange chromatography, competition of PPi acceptors, Km from calculated acceptor-site occupancy on SaEAS (SaEAS-FLAG, secreted SaEASΔSP-FLAG) | we then calculated the acceptor-site occupancy and Km for the non-ATP substrate

[2] = target: T1, SaEAS (SaEAS-FLAG, secreted SaEASΔSP-FLAG); test: anion-exchange chromatography, initial velocity of pppGpp synthesis; conditions: ATP as PPi donor; 5 mM GTP acceptor, 0.03-1 mM ATP, 5 mM free MgCl2, 0.1 mM MnCl2, pH 7.5, 37 °C, PK/PEP
[3] = target: T1, SaEAS (SaEAS-FLAG, secreted SaEASΔSP-FLAG); test: anion-exchange chromatography, initial velocity of pppApp synthesis; conditions: ATP as PPi acceptor (second site); 0.5-10 mM ATP as donor and acceptor, 5 mM free MgCl2, 0.1 mM MnCl2, pH 7.5, 37 °C
Description: anion-exchange chromatography, initial velocity of pppApp synthesis on SaEAS (SaEAS-FLAG, secreted SaEASΔSP-FLAG) | the Michaelis-Menten relationship provides the Km for ATP as a PPi acceptor

VpEAS = target: T2, VpEAS (Vibrio parahaemolyticus, UniProt Q87Q55); test: anion-exchange chromatography of lysate reaction, pppGpp-2S formation; conditions: 5 mM ATPγS, 1 mM GTPγS, 10 mM MgCl2, 0.1 mM MnCl2, pH 7.5, 37 °C, 5 min
T2 construct: gene VP1295; recombinant from pET29b in E. coli BL21(DE3), cleared lysate

[4] = target: T1, SaEAS (SaEAS-FLAG, secreted SaEASΔSP-FLAG); test: anion-exchange chromatography, competition of PPi acceptors, Km derived from Vmax and Vmax/Km; conditions: PPi acceptor; ATP donor, 5 mM free MgCl2, 0.1 mM MnCl2, pH 7.5, 37 °C; read-out: Km, acceptor(GTP)
Description: anion-exchange chromatography, competition of PPi acceptors, Km derived from Vmax and Vmax/Km on SaEAS (SaEAS-FLAG, secreted SaEASΔSP-FLAG) | We next used Vmax(pppGpp) to calculate Km, acceptor(GTP).

T1 sequence (A0AA37FDV0 entry or part of it, stated change not applied): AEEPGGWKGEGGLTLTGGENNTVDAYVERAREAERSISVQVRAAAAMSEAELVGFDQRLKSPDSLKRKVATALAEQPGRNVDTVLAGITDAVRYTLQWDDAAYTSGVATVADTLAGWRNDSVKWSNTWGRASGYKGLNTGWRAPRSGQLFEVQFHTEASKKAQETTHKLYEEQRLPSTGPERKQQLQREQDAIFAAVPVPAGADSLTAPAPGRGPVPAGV
T2 sequence (Q87Q55 entry or part of it): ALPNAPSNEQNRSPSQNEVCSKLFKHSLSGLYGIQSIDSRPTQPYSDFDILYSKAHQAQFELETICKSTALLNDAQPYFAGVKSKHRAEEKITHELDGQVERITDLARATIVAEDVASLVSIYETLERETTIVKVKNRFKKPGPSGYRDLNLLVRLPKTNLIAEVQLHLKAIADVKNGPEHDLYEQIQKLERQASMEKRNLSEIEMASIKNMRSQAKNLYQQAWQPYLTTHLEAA

Km ([1]; 5 mM ADP): 930 ± 40 µM
Structure (SMILES): Nc1ncnc2c1ncn2[C@@H]1O[C@H](COP(=O)(O)OP(=O)(O)O)[C@@H](O)[C@H]1O [ADP]

Km ([1]; 5 mM AMP): 2200 ± 200 µM
Structure (SMILES): Nc1ncnc2c1ncn2[C@@H]1O[C@H](COP(=O)(O)O)[C@@H](O)[C@H]1O [AMP]

Km ([1]; 0.5 mM GMP): 64 ± 3 µM
Structure (SMILES): Nc1nc2c(ncn2[C@@H]2O[C@H](COP(=O)(O)O)[C@@H](O)[C@H]2O)c(=O)[nH]1 [GMP]

Km [4]: 50 ± 4 µM
Structure (SMILES): Nc1nc2c(ncn2[C@@H]2O[C@H](COP(=O)(O)OP(=O)(O)OP(=O)(O)O)[C@@H](O)[C@H]2O)c(=O)[nH]1 [GTP]

The next lines start with the compound.

Structure (SMILES): Nc1ncnc2c1ncn2[C@@H]1O[C@H](COP(=O)(O)OP(=O)(O)OP(=O)(O)O)[C@@H](O)[C@H]1O [ATP]
Km [2]: 82 µM
Km, aceptor(ATP) [3]: 1400 µM

Structure (SMILES): Nc1ncnc2c1ncn2[C@@H]1O[C@H](COP(=O)(O)OP(=O)(O)OP(O)(O)=S)[C@@H](O)[C@H]1O [ATPγS]
anion-exchange chromatography of lysate reaction, pppGpp-2S formation (VpEAS; PPi donor): Reactions were carried out using the non-hydrolyzable thiophosphates ATPγS and GTPγS

Structure (SMILES): Nc1nc2c(ncn2[C@@H]2O[C@H](COP(=O)(O)OP(=O)(O)OP(O)(O)=S)[C@@H](O)[C@H]2O)c(=O)[nH]1 [GTPγS]
anion-exchange chromatography of lysate reaction, pppGpp-2S formation (VpEAS; PPi acceptor): VpEAS specifically uses GTPγS as an acceptor nucleotide to produce pppGpp-2S

Reference: paper PMC12691689, “Bacteria export alarmone synthetases that produce (p)ppApp and (p)ppGpp” (mBio, 2025)
